Values quoted from earlier work in patent US20100056488A1, “CORTICOSTEROID CONJUGATES AND USES THEREOF” (The McLean Hospital Corporation, priority 2002, published 2010).

Tests used:
[1] = test system: cortisol production or ACTH; details: suppression of cortisol production or ACTH
[2] = test system: corticosterone production; details: suppression for 24 hours
[3] = test system: ether-stress induced increase in corticosterone; details: dose 0.025 mg/kg; higher dose necessary to fully eliminate response

CNS activity [1]	SMILES	lowest dose fully effective in suppressing basal corticosterone production [2] [mg/kg]	suppression of ether-stress induced increase in corticosterone [3]
CNS active	C[C@]12CCC(=O)C=C1CC[C@@H]1[C@@H]2[C@@H](O)C[C@@]2(C)[C@H]1CC[C@]2(O)C(=O)COC(=O)CCC(=O)O [Hydrocortisone sodium succinate]	–	–
–	C[C@@H]1C[C@H]2[C@@H]3CCC4=CC(=O)C=C[C@]4(C)[C@@]3(F)[C@@H](O)C[C@]2(C)[C@@]1(O)C(=O)CO [dexamethasone]	0.025	significantly suppressed
